Assays:
MKNK1 [1] = target: T1, MKNK1 (Homo sapiens, UniProt Q9BUB5, T385D); test: MKNK1 kinase assay (MKNK1 TR-FRET assay); type: biochemical; conditions: Table 1a; 10 μM ATP, 15 min preincubation
T1 construct: GST (N); purchased Carna Biosciences 02-145; host or cells: insect cells (baculovirus expression system)
From the text: MKNK1-inhibitory activity of compounds of the present invention was quantified employing the MKNK1 TR-FRET assay as described in the following paragraphs.
(§1) A recombinant fusion protein of Glutathione-S-Transferase (GST, N-terminally) and human full-lengt MKNK1 (amino acids 1-424 and T344D of accession number BAA 19885.1), expressed in insect cells using baculovirus expression system and purified via glutathione sepharose affinity chromatography, was purchased from Carna Biosciences (product no 02-145) and used as enzyme. As substrate for the kinase reaction the biotinylated peptide biotin-Ahx-IKKRKLTRRKSLKG (C-terminus in amide form) was used which can be purchased e.g. form the company Biosyntan (Berlin-Buch, Germany).
For the assay 50 nL of a 100 fold concentrated solution of the test compound in DMSO was pipetted into a black low volume 384 well microtiter plate (Greiner Bio-One, Frickenhausen, Germany), 2 μL of a solution of MKNK1 in aqueous assay buffer [50 mM HEPES pH 7.5, 5 mM magnesium chloride, 1.0 mM dithiothreitol, 0.005% (v/v) Nonidet-P40 (Sigma)] was added and the mixture was incubated for 15 min at 22° C. to allow pre-binding of the test compounds to the enzyme before the start of the kinase reaction. […] The concentration of MKNK1 was adjusted depending of the activity of the enzyme lot and was chosen appropriate to have the assay in the linear range, typical concentrations were in the range of […]. The reaction was stopped by the addition of 5 μL of a solution of TR-FRET detection reagents (5 nM streptavidine-XL665 [Cisbio Bioassays, Codolet, France] and 1 nM anti-ribosomal protein S6 (pSer236)-antibody from Invitrogen [#44921G] and 1 nM LANCE EU-W1024 labeled ProteinG [Perkin-Elmer, product no. AD0071]) in an aqueous EDTA-solution (100 mM EDTA, 0.1% (w/v) bovine serum albumin in 50 mM HEPES pH 7.5).
(§2) The resulting mixture was incubated for 1 h at 22° C. to allow the formation of complex between the phosphorylated biotinylated peptide and the detection reagents. Subsequently the amount of phosphorylated substrate was evaluated by measurement of the resonance energy transfer from the Eu-chelate to the streptavidine-XL. Therefore, the fluorescence emissions at 620 nm and 665 nm after excitation at 350 nm were measured in a TR-FRET reader, e.g. a Rubystar (BMG Labtechnologies, Offenburg, Germany) or a Viewlux (Perkin-Elmer). The ratio of the emissions at 665 nm and at […] was taken as the measure for the amount of phosphorylated substrate. The data were normalised (enzyme reaction without inhibitor=0% inhibition, all other assay components but no enzyme=100% inhibition).

MKNK1 [2] = target: T1, MKNK1; test: MKNK1 kinase high ATP assay (TR-FRET-based); type: biochemical; conditions: Table 2a; 2 mM ATP, 15 min preincubation
Experimental: MKNK1 Kinase High ATP Assay
MKNK1-inhibitory activity at high ATP of compounds of the present invention after their preincubation with MKNK1 was quantified employing the TR-FRET-based MKNK1 high ATP assay as described in the following paragraphs.
as §1, with “human full-length” for “human full-lengt”, “was used,” for “was used”, “e.g. from” for “e.g. form”
For the assay 50 nL of a 100 fold concentrated solution of the test compound in DMSO was pipetted into a black low volume 384 well microtiter plate (Greiner Bio-One, Frickenhausen, Germany), 2 μL of a solution of MKNK1 in aqueous assay buffer [50 mM HEPES pH 7.5, 5 mM magnesium chloride, 1.0 mM dithiothreitol, 0.005% (v/v) Nonidet-P40 (Sigma)] was added and the mixture was incubated for 15 min at 22° C. to allow pre-binding of the test compounds to the enzyme before the start of the kinase reaction. Then the kinase reaction was started by the addition of 3 μL of a solution of adenosine-tri-phosphate (ATP, 3.3 mM=>final conc. in the 5 μL assay volume is 2 mM) and substrate (0.1 μM=>final conc. in the 5 μL assay volume is 0.06 μM) in assay buffer and the resulting mixture was incubated for a reaction time of 30 min at 22° C. The concentration of MKNK1 was adjusted depending of the activity of the enzyme lot and was chosen appropriate to have the assay in the linear range, typical concentrations were in the range of 0.003 μg/mL. The reaction was stopped by the addition of 5 μL of a solution of TR-FRET detection reagents (5 nM streptavidine-XL665 [Cisbio Bioassays, Codolet, France] and 1 nM anti-ribosomal protein S6 (pSer236)-antibody from Invitrogen [#44921G] and 1 nM LANCE EU-W1024 labeled ProteinG [Perkin-Elmer, product no. AD0071]) in an aqueous EDTA-solution (100 mM EDTA, 0.1% (w/v) bovine serum albumin in 50 mM HEPES pH 7.5).
as §2

T1 sequence (Q9BUB5 1-424 isoform Q9BUB5-2 T344D): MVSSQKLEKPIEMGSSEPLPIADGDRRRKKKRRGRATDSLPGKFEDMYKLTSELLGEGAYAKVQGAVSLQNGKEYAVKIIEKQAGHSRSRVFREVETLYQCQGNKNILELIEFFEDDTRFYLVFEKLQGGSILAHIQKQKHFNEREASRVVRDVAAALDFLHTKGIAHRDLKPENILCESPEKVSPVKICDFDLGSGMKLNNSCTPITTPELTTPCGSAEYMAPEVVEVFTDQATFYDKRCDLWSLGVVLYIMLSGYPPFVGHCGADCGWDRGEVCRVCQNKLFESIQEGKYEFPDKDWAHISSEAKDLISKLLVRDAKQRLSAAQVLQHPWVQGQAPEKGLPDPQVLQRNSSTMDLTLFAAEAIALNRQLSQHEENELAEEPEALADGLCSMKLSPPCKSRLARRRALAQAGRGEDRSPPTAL

| Compound | IC50 (MKNK1 [1]) | IC50 (MKNK1 [2]) |
| --- | --- | --- |
| O=C1NCCN1CCOc1ccc2ncc(-c3cc4ccccc4o3)n2n1 [Example I-18, 1-(2-{[3-(1-Benzofuran-2-yl)imidazo[1,2-b]pyridazin-6-yl]oxy}ethyl)-imidazolidin-2-one] | 7.1 nM | 13.8 nM |
| COc1cccc2oc(-c3cnc4ccc(OC[C@@H]5CCC(=O)N5)nn34)cc12 [Example I-19, (5S)-5-({[3-(4-Methoxy-1-benzofuran-2-yl)imidazo[1,2-b]pyridazin-6-yl]oxy}-methyl)pyrrolidin-2-one] | 4.5 nM | 15.4 nM |
| COc1cccc2oc(-c3cnc4ccc(OC[C@H]5CN(C(=O)C(F)(F)F)CCO5)nn34)cc12 [Example I-20, 2,2,2-Trifluoro-1-[(2R)-2-({[3-(4-methoxy-1-benzofuran-2-yl)imidazo[1,2-b]-pyridazin-6-yl]oxy}methyl)morpholin-4-yl]ethanone] | 7.7 nM | 15.5 nM |
| COc1cccc2oc(-c3cnc4ccc(OC[C@H]5CN(C(=O)C(C)(C)C)CCO5)nn34)cc12 [Example I-21, 1-[(2R)-2-({[3-(4-Methoxy-1-benzofuran-2-yl)imidazo[1,2-b]pyridazin-6-yl]-oxy}methyl)morpholin-4-yl]-2,2-dimethylpropan-1-one] | 6.6 nM | 17.7 nM |
| O=C1CCCN1CCCOc1ccc2ncc(-c3cc4ccccc4o3)n2n1 [Example I-22, 1-(3-{[3-(1-Benzofuran-2-yl)imidazo[1,2-b]pyridazin-6-yl]oxy}propyl)pyrrolidin-2-one] | 12.6 nM | 18.6 nM |
| O=C(N[C@H]1C[C@H](Oc2ccc3ncc(-c4cc5ccccc5o4)n3n2)C1)C(F)(F)F [Example I-23, N-(trans-3-{[3-(1-Benzofuran-2-yl)imidazo[1,2-b]pyridazin-6-yl]oxy}cyclobutyl)-2,2,2-trifluoroacetamide] | 15.7 nM | 18.8 nM |
| NC(=O)COc1ccc2ncc(-c3cc4ccccc4o3)n2n1 [Example I-24, 2-{[3-(1-Benzofuran-2-yl)imidazo[1,2-b]pyridazin-6-yl]oxy}acetamide] | 12.5 nM | 20.7 nM |
| CC(Oc1ccc2ncc(-c3cc4ccccc4o3)n2n1)C(N)=O (stereo not shown) [Example I-25, 2-{[3-(1-Benzofuran-2-yl)imidazo[1,2-b]pyridazin-6-yl]oxy}propanamide] | 4.7 nM | 20.8 nM |
| O=C1CCC(CCOc2ccc3ncc(-c4cc5ccccc5o4)n3n2)N1 (stereo not shown) [Example I-26, 5-(2-{[3-(1-Benzofuran-2-yl)imidazo[1,2-b]pyridazin-6-yl]oxy}ethyl)pyrrolidin-2-one] | 9 nM | 23 nM |
| CC(=O)N1CCOC(COc2ccc3ncc(-c4cc5ccccc5o4)n3n2)C1 (stereo not shown) [Example I-27, 1-[2-({[3-(1-Benzofuran-2-yl)imidazo[1,2-b]pyridazin-6-yl]oxy}methyl)-morpholin-4-yl]ethanone] | 7.3 nM | 23.5 nM |
| CC(=O)NCCOc1ccc2ncc(-c3cc4ccccc4o3)n2n1 [Example I-28, N-(2-{[3-(1-Benzofuran-2-yl)imidazo[1,2-b]pyridazin-6-yl]oxy}ethyl)acetamide] | 9.1 nM | 29.8 nM |
| O=C1CNC[C@@H](COc2ccc3ncc(-c4cc5ccccc5o4)n3n2)N1 [Example I-29, (6S)-6-({[3-(1-Benzofuran-2-yl)imidazo[1,2-b]pyridazin-6-yl]oxy}methyl)-piperazin-2-one] | 13.1 nM | 34.1 nM |
| COCC(=O)NC[C@H](Oc1ccc2ncc(-c3cc4ccccc4o3)n2n1)c1cccnc1 [Example I-30, N-[(2R)-2-{[3-(1-Benzofuran-2-yl)imidazo[1,2-b]pyridazin-6-yl]oxy}-2-(pyridin-3-yl)ethyl]-2-methoxyacetamide] | 10.3 nM | 34.8 nM |
| CC(=O)N1CCC[C@H]1CCOc1ccc2ncc(-c3cc4cc(Cl)ccc4o3)n2n1 [Example I-31, 1-[(2S)-2-(2-{[3-(5-Chloro-1-benzofuran-2-yl)imidazo[1,2-b]pyridazin-6-yl]oxy}ethyl)pyrrolidin-1-yl]ethanone] | 16.7 nM | 35.2 nM |
| CN1C(=O)CC[C@H]1COc1ccc2ncc(-c3cc4ccccc4o3)n2n1 [Example I-32, (5S)-5-({[3-(1-Benzofuran-2-yl)imidazo[1,2-b]pyridazin-6-yl]oxy}methyl)-1-methylpyrrolidin-2-one] | 13.7 nM | 39.8 nM |
| COc1ccc2oc(-c3cnc4ccc(OCCN5CCNC5=O)nn34)cc2c1 [Example I-33, 1-(2-{[3-(5-Methoxy-1-benzofuran-2-yl)imidazo[1,2-b]pyridazin-6-yl]oxy}ethyl)imidazolidin-2-one] | 15.5 nM | 40.5 nM |
| CC(=O)NC(COc1ccc2ncc(-c3cc4ccccc4o3)n2n1)c1cccnc1 (stereo not shown) [Example I-34, N-[2-{[3-(1-Benzofuran-2-yl)imidazo[1,2-b]pyridazin-6-yl]oxy}-1-(pyridin-3-yl)ethyl]acetamide] | 16.4 nM | 45.1 nM |
| CC(=O)NC[C@H](Oc1ccc2ncc(-c3cc4ccccc4o3)n2n1)c1cccnc1 [Example I-35, N-[(2R)-2-{[3-(1-Benzofuran-2-yl)imidazo[1,2-b]pyridazin-6-yl]oxy}-2-(pyridin-3-yl)ethyl]acetamide] | 17.9 nM | 47.8 nM |
| CN(C)C(=O)COc1ccc2ncc(-c3cc4ccccc4o3)n2n1 [Example I-36, 2-{[3-(1-Benzofuran-2-yl)imidazo[1,2-b]pyridazin-6-yl]oxy}-N,N-dimethyl-acetamide] | 15.1 nM | 56.2 nM |
| CC(C)(C)NC(=O)COc1ccc2ncc(-c3cc4ccccc4o3)n2n1 [Example I-37, 2-{[3-(1-Benzofuran-2-yl)imidazo[1,2-b]pyridazin-6-yl]oxy}-N-tert-butyl-acetamide] | 17 nM | 70 nM |
| O=C1NCCC1Oc1ccc2ncc(-c3cc4ccccc4o3)n2n1 (stereo not shown) [Example I-38, 3-{[3-(1-Benzofuran-2-yl)imidazo[1,2-b]pyridazin-6-yl]oxy}pyrrolidin-2-one] | 64 nM | 71.7 nM |
| NC(=O)C(Oc1ccc2ncc(-c3cc4ccccc4o3)n2n1)c1cccnc1 (stereo not shown) [Example I-39, 2-{[3-(1-Benzofuran-2-yl)imidazo[1,2-b]pyridazin-6-yl]oxy}-2-(pyridin-3-yl)acetamide] | 55.2 nM | 77.7 nM |
| CC(C)(C)C(=O)N1CCC[C@H]1CCOc1ccc2ncc(-c3cc4cc(Cl)ccc4o3)n2n1 [Example I-40, 1-[(2S)-2-(2-{[3-(5-Chloro-1-benzofuran-2-yl)imidazo[1,2-b]pyridazin-6-yl]-oxy}ethyl)pyrrolidin-1-yl]-2,2-dimethylpropan-1-one] | 26 nM | 76.4 nM |

From patent US20160287589A1, “SUBSTITUTED-IMIDAZOPYRIDAZINES” (BAYER PHARMA AKTIENGESELLSCHAFT, priority 2013, published 2016)
